# Experimental data from PMC5218480 (PLoS ONE, 2017).
# System: MV-4-11 cells
# Test: Gene expression microarray analysis (Affymetrix PrimeView) and GSEA
# Assay type: cell-based, human
# Set-up: RFU PODN (11730768_x_at) / Fold change /veh PODN (11730768_x_at) / RFU LINC00158 (11744669_a_at) / Fold change /veh LINC00158 (11744669_a_at) / RFU DUSP10 (11751237_a_at) / Fold change /veh DUSP10 (11751237_a_at) / RFU ID3 (11757404_x_at) / Fold change /veh ID3 (11757404_x_at) / RFU PLEKHG5 (11737974_s_at) / Fold change /veh PLEKHG5 (11737974_s_at) / RFU LRRC4B (11730491_at) / Fold change /veh LRRC4B (11730491_at) / RFU GIMAP4 (11747438_a_at) / Fold change /veh GIMAP4 (11747438_a_at) / RFU KRT8 (11758183_x_at) / Fold change /veh KRT8 (11758183_x_at) / RFU CNN1 (11734310_a_at) / Fold change /veh CNN1 (11734310_a_at) / RFU VPS37D (11726825_at) / Fold change /veh VPS37D (11726825_at) / RFU C10orf10 (11716522_x_at) / Fold change /veh C10orf10 (11716522_x_at) / RFU KIR2DL2 /// KIR2DL4 /// KIR2DL5A /// KIR2DL5B /// KIR2DS1 /// KIR2DS2 /// KIR2DS3 /// KIR2DS4 /// KIR3DL3 /// KIR3DL3 /// KIR3DS1 (11738374_at) / Fold change /veh KIR2DL2 /// KIR2DL4 /// KIR2DL5A /// KIR2DL5B /// KIR2DS1 /// KIR2DS2 /// KIR2DS3 /// KIR2DS4 /// KIR3DL3 /// KIR3DL3 /// KIR3DS1 (11738374_at) / RFU C1QL1 (11718748_at) / Fold change /veh C1QL1 (11718748_at) / RFU TMPRSS4 (11747572_a_at) / Fold change /veh TMPRSS4 (11747572_a_at) / RFU HAMP (11756126_x_at) / Fold change /veh HAMP (11756126_x_at) / RFU RNFT2 (11725882_a_at) / Fold change /veh RNFT2 (11725882_a_at) / RFU NR4A2 (11747474_a_at) / Fold change /veh NR4A2 (11747474_a_at) / RFU ABCC12 (11746883_a_at) / Fold change /veh ABCC12 (11746883_a_at) / RFU TMEM136 (11760407_x_at) / Fold change /veh TMEM136 (11760407_x_at) / RFU CLDN22 /// WWC2 (11732394_at) / Fold change /veh CLDN22 /// WWC2 (11732394_at) / RFU HLA-DPB1 (11760878_x_at) / Fold change /veh HLA-DPB1 (11760878_x_at) / RFU SPINT1 (11716480_a_at) / Fold change /veh SPINT1 (11716480_a_at) / RFU GAP43 (11754022_s_at) / Fold change /veh GAP43 (11754022_s_at) / RFU A4GNT (11735810_at) / Fold change /veh A4GNT (11735810_at) / RFU PRB3 (11715151_x_at) / Fold change /veh PRB3 (11715151_x_at) / RFU TUBB4B (11761932_at) / Fold change /veh TUBB4B (11761932_at) / RFU CAPN14 (11732068_a_at) / Fold change /veh CAPN14 (11732068_a_at) / RFU TMCC2 (11721928_a_at) / Fold change /veh TMCC2 (11721928_a_at) / RFU IRGQ (11745062_a_at) / Fold change /veh IRGQ (11745062_a_at) / RFU FAM174B (11720279_a_at) / Fold change /veh FAM174B (11720279_a_at) / RFU TMPRSS4 (11748680_a_at) / Fold change /veh TMPRSS4 (11748680_a_at) / RFU FAM212B (11763350_a_at) / Fold change /veh FAM212B (11763350_a_at) / RFU PLEKHG5 (11743358_a_at) / Fold change /veh PLEKHG5 (11743358_a_at) / RFU ZSCAN30 (11745921_a_at) / Fold change /veh ZSCAN30 (11745921_a_at) / RFU CMKLR1 (11741424_a_at) / Fold change /veh CMKLR1 (11741424_a_at) / RFU LOC101060620 /// MAPK8IP1 (11723275_at) / Fold change /veh LOC101060620 /// MAPK8IP1 (11723275_at) / RFU SPTSSB (11747773_x_at) / Fold change /veh SPTSSB (11747773_x_at) / RFU PRSS12 (11739890_at) / Fold change /veh PRSS12 (11739890_at) / RFU BIN1 (11741810_x_at) / Fold change /veh BIN1 (11741810_x_at) / RFU WNT11 (11732464_a_at) / Fold change /veh WNT11 (11732464_a_at) / RFU C10orf10 (11716521_a_at) / Fold change /veh C10orf10 (11716521_a_at) / RFU C5orf56 (11738089_at) / Fold change /veh C5orf56 (11738089_at) / RFU CYB561 (11721691_x_at) / Fold change /veh CYB561 (11721691_x_at) / RFU ANKRD19P (11752326_a_at) / Fold change /veh ANKRD19P (11752326_a_at) / RFU OR2T12 /// OR2T33 /// OR2T8 (11738714_s_at) / Fold change /veh OR2T12 /// OR2T33 /// OR2T8 (11738714_s_at) / RFU VCAN (11748164_a_at) / Fold change /veh VCAN (11748164_a_at) / RFU JSRP1 (11732532_at) / Fold change /veh JSRP1 (11732532_at) / RFU KRTAP10-11 (11738290_x_at) / Fold change /veh KRTAP10-11 (11738290_x_at) / RFU MYO3A (11730013_a_at) / Fold change /veh MYO3A (11730013_a_at) / RFU EBF3 (11725865_a_at) / Fold change /veh EBF3 (11725865_a_at) / RFU CAMK2N1 (11719241_x_at) / Fold change /veh CAMK2N1 (11719241_x_at) / RFU C5orf56 (11738088_a_at) / Fold change /veh C5orf56 (11738088_a_at) / RFU OLFML3 (11715873_a_at) / Fold change /veh OLFML3 (11715873_a_at) / RFU LOC100653217 /// NTM (11731650_a_at) / Fold change /veh LOC100653217 /// NTM (11731650_a_at) / RFU MAPK11 (11762145_a_at) / Fold change /veh MAPK11 (11762145_a_at) / RFU FIZ1 (11724087_x_at) / Fold change /veh FIZ1 (11724087_x_at) / RFU OASL (11726364_x_at) / Fold change /veh OASL (11726364_x_at) / RFU SOX15 (11748057_x_at) / Fold change /veh SOX15 (11748057_x_at) / RFU CD79A (11719716_a_at) / Fold change /veh CD79A (11719716_a_at) / RFU HIST1H1D (11736915_at) / Fold change /veh HIST1H1D (11736915_at) / RFU CASKIN2 (11723855_a_at) / Fold change /veh CASKIN2 (11723855_a_at) / RFU LOC730098 (11760151_x_at) / Fold change /veh LOC730098 (11760151_x_at) / RFU OR4N2 (11742367_at) / Fold change /veh OR4N2 (11742367_at) / RFU PRRT2 (11749266_a_at) / Fold change /veh PRRT2 (11749266_a_at) / RFU SNX32 (11753110_a_at) / Fold change /veh SNX32 (11753110_a_at) / RFU CDHR5 (11726645_a_at) / Fold change /veh CDHR5 (11726645_a_at) / RFU RCAN1 (11760418_a_at) / Fold change /veh RCAN1 (11760418_a_at) / RFU FAM167A (11723789_a_at) / Fold change /veh FAM167A (11723789_a_at) / RFU FAM26E (11764081_at) / Fold change /veh FAM26E (11764081_at) / RFU ISYNA1 (11749810_s_at) / Fold change /veh ISYNA1 (11749810_s_at) / RFU ACY1 (11761880_at) / Fold change /veh ACY1 (11761880_at) / RFU 11764098_at / Fold change /veh 11764098_at / RFU SAMD14 (11745864_x_at) / Fold change /veh SAMD14 (11745864_x_at) / RFU NPB (11741838_a_at) / Fold change /veh NPB (11741838_a_at) / RFU TMPRSS6 (11731388_a_at) / Fold change /veh TMPRSS6 (11731388_a_at) / RFU KRTAP10-2 (11738614_at) / Fold change /veh KRTAP10-2 (11738614_at) / RFU ARHGAP8 /// PRR5-ARHGAP8 (11727945_x_at) / Fold change /veh ARHGAP8 /// PRR5-ARHGAP8 (11727945_x_at) / RFU KRTAP5-7 /// NADSYN1 (11734609_at) / Fold change /veh KRTAP5-7 /// NADSYN1 (11734609_at) / RFU RASL12 (11751679_a_at) / Fold change /veh RASL12 (11751679_a_at) / RFU CDKN2B (11736163_a_at) / Fold change /veh CDKN2B (11736163_a_at) / RFU PRF1 (11729649_at) / Fold change /veh PRF1 (11729649_at) / RFU, ZNF638 /// ZNF638-IT1 / Fold change vs veh, ZNF638 /// ZNF638-IT1 / RFU, PANK3 / Fold change vs veh, PANK3 / RFU, SH3YL1 / Fold change vs veh, SH3YL1 / RFU, ZEB2 / Fold change vs veh, ZEB2 / RFU, NRIP1 / Fold change vs veh, NRIP1 / RFU, PTTG1IP / Fold change vs veh, PTTG1IP / RFU, CAPN2 / Fold change vs veh, CAPN2 / RFU, MED14 / Fold change vs veh, MED14 / RFU, SNORA58 / Fold change vs veh, SNORA58 / RFU, C1orf63 / Fold change vs veh, C1orf63 / RFU, LRRFIP1 / Fold change vs veh, LRRFIP1 / RFU, NDUFAF7 / Fold change vs veh, NDUFAF7 / RFU, SLC12A2 / Fold change vs veh, SLC12A2 / RFU, IBTK / Fold change vs veh, IBTK / RFU, ESF1 / Fold change vs veh, ESF1 / Fold change vs veh, TMEM50B / RFU, TAOK1 / Fold change vs veh, TAOK1 / RFU, ACBD3 / Fold change vs veh, ACBD3 / RFU, TMA16 / Fold change vs veh, TMA16 / RFU, RWDD3 / Fold change vs veh, RWDD3 / RFU, BCAT1 / Fold change vs veh, BCAT1 / RFU, EDEM3 / Fold change vs veh, EDEM3 / RFU, TMEM33 / Fold change vs veh, TMEM33 / RFU, WDR75 / Fold change vs veh, WDR75 / RFU, AHCTF1 / Fold change vs veh, AHCTF1 / RFU, TFRC / Fold change vs veh, TFRC / RFU, ZDHHC17 / Fold change vs veh, ZDHHC17 / RFU, NOM1 / Fold change vs veh, NOM1 / RFU, ARL8B / Fold change vs veh, ARL8B / RFU, ZBTB11 / Fold change vs veh, ZBTB11 / RFU, TAMM41 / Fold change vs veh, TAMM41 / RFU, KIAA1704 /// LOC100996395 / Fold change vs veh, KIAA1704 /// LOC100996395 / RFU, ING1 / Fold change vs veh, ING1 / RFU, TRMT61B / Fold change vs veh, TRMT61B / RFU, FUBP3 / Fold change vs veh, FUBP3 / RFU, TP53 / Fold change vs veh, TP53 / RFU, TNKS2 / Fold change vs veh, TNKS2 / RFU, ZFP14 / Fold change vs veh, ZFP14 / RFU, ACTR2 / Fold change vs veh, ACTR2 / RFU, PPP3R1 / Fold change vs veh, PPP3R1 / RFU, PIK3R1 / Fold change vs veh, PIK3R1 / RFU, HNRNPA1 / Fold change vs veh, HNRNPA1 / RFU, RNF170 / Fold change vs veh, RNF170 / RFU, ZNF28 / Fold change vs veh, ZNF28 / RFU, RNGTT / Fold change vs veh, RNGTT / RFU, OGT / Fold change vs veh, OGT / RFU, BRD1 / Fold change vs veh, BRD1 / RFU, MARS / Fold change vs veh, MARS / RFU, ZNF655 / Fold change vs veh, ZNF655 / RFU, FAHD1 / Fold change vs veh, FAHD1 / RFU, BDP1 / Fold change vs veh, BDP1 / RFU, LRRCC1 / Fold change vs veh, LRRCC1 / RFU, ARID1A / Fold change vs veh, ARID1A / RFU, ZNF146 / Fold change vs veh, ZNF146 / RFU, ZNF330 / Fold change vs veh, ZNF330 / RFU, GPN3 / Fold change vs veh, GPN3 / RFU, C9orf123 / Fold change vs veh, C9orf123 / RFU, N4BP2L2 / Fold change vs veh, N4BP2L2 / RFU, ARFIP1 / Fold change vs veh, ARFIP1 / RFU, FAM179B / Fold change vs veh, FAM179B / RFU, BCL10 / Fold change vs veh, BCL10 / RFU, UHRF1BP1L / Fold change vs veh, UHRF1BP1L / RFU, BET1 / Fold change vs veh, BET1 / RFU, CNOT2 / Fold change vs veh, CNOT2 / RFU, ZNF268 / Fold change vs veh, ZNF268 / Fold change vs veh, ZNF507 / RFU, DGCR2 / Fold change vs veh, DGCR2 / RFU, WDSUB1 / Fold change vs veh, WDSUB1 / Fold change vs veh, HSP90B1 /// MIR3652 / RFU, ADSS / Fold change vs veh, ADSS / RFU, GK / Fold change vs veh, GK / RFU, ZNF148 / Fold change vs veh, ZNF148 / RFU, TAF9 / Fold change vs veh, TAF9 / RFU, SLC1A5 / Fold change vs veh, SLC1A5 / RFU, SLMO2 / Fold change vs veh, SLMO2 / RFU, ABCC4 / Fold change vs veh, ABCC4 / RFU, LOC101060439 /// RAP1B / Fold change vs veh, LOC101060439 /// RAP1B / RFU, RFX7 / Fold change vs veh, RFX7 / RFU, GTPBP10 / Fold change vs veh, GTPBP10 / RFU, CNEP1R1 / Fold change vs veh, CNEP1R1 / RFU, BIVM-ERCC5 /// ERCC5 / Fold change vs veh, BIVM-ERCC5 /// ERCC5 / RFU, ILF3 / Fold change vs veh, ILF3 / RFU 11762660_at / Fold change /veh 11762660_at / RFU VCAN (11757783_s_at) / Fold change /veh VCAN (11757783_s_at) / RFU DDX43 (11728927_at) / Fold change /veh DDX43 (11728927_at) / RFU KRT8 (11758188_x_at) / Fold change /veh KRT8 (11758188_x_at) / RFU NKD1 (11759106_at) / Fold change /veh NKD1 (11759106_at) / RFU SRD5A1 (11742802_a_at) / Fold change /veh SRD5A1 (11742802_a_at) / RFU TPSAB1 /// TPSB2 (11721975_s_at) / Fold change /veh TPSAB1 /// TPSB2 (11721975_s_at) / RFU GSTM3 (11746129_a_at) / Fold change /veh GSTM3 (11746129_a_at) / RFU IL23R (11737362_x_at) / Fold change /veh IL23R (11737362_x_at) / RFU TMEM51 (11727254_a_at) / Fold change /veh TMEM51 (11727254_a_at) / RFU PIWIL2 (11732686_x_at) / Fold change /veh PIWIL2 (11732686_x_at) / RFU ORM1 (11744905_x_at) / Fold change /veh ORM1 (11744905_x_at) / RFU CCDC152 (11743942_at) / Fold change /veh CCDC152 (11743942_at) / RFU ECM1 (11717891_a_at) / Fold change /veh ECM1 (11717891_a_at) / RFU IL23R (11748794_a_at) / Fold change /veh IL23R (11748794_a_at) / RFU TNFAIP8L3 (11732012_x_at) / Fold change /veh TNFAIP8L3 (11732012_x_at) / RFU MBOAT4 (11741988_at) / Fold change /veh MBOAT4 (11741988_at) / RFU 11764193_at / Fold change /veh 11764193_at / RFU TMEM53 (11763286_at) / Fold change /veh TMEM53 (11763286_at) / RFU MAGEB2 (11727129_at) / Fold change /veh MAGEB2 (11727129_at) / RFU TMEM200A (11744735_a_at) / Fold change /veh TMEM200A (11744735_a_at) / RFU CCDC152 (11751479_a_at) / Fold change /veh CCDC152 (11751479_a_at) / RFU FAM211A (11726209_a_at) / Fold change /veh FAM211A (11726209_a_at) / RFU RGS16 (11746705_a_at) / Fold change /veh RGS16 (11746705_a_at) / RFU VCAN (11755009_s_at) / Fold change /veh VCAN (11755009_s_at) / RFU RHOB (11743442_s_at) / Fold change /veh RHOB (11743442_s_at) / RFU RGS16 (11720943_a_at) / Fold change /veh RGS16 (11720943_a_at) / RFU RGS16 (11720944_at) / Fold change /veh RGS16 (11720944_at) / RFU, VPS4B / Fold change vs veh, VPS4B / RFU, CREB1 / Fold change vs veh, CREB1 / RFU, DNAJC13 / Fold change vs veh, DNAJC13 / RFU, GNAQ / Fold change vs veh, GNAQ / RFU, CDK5R1 / Fold change vs veh, CDK5R1 / RFU, ZRANB3 / Fold change vs veh, ZRANB3 / RFU, CUL4A / Fold change vs veh, CUL4A / RFU, CCNY / Fold change vs veh, CCNY / RFU, UFL1 / Fold change vs veh, UFL1 / RFU, COG3 / Fold change vs veh, COG3 / RFU, DIAPH2 / Fold change vs veh, DIAPH2 / RFU, SKA2 / Fold change vs veh, SKA2 / RFU, AFF3 / Fold change vs veh, AFF3 / RFU, LMF1 / Fold change vs veh, LMF1 / RFU, IPO11 / Fold change vs veh, IPO11 / RFU, DFFB / Fold change vs veh, DFFB / RFU, FOXP1 / Fold change vs veh, FOXP1 / RFU, CARD8 / Fold change vs veh, CARD8 / RFU, STRN3 / Fold change vs veh, STRN3 / RFU, ADK / Fold change vs veh, ADK / RFU, RASSF2 / Fold change vs veh, RASSF2 / RFU, WIPF1 / Fold change vs veh, WIPF1 / RFU, LARP1B / Fold change vs veh, LARP1B / RFU, RASA1 / Fold change vs veh, RASA1 / RFU, RB1 / Fold change vs veh, RB1 / RFU, PPFIA1 / Fold change vs veh, PPFIA1 / RFU, MAT2A / Fold change vs veh, MAT2A / RFU, CCT5 / Fold change vs veh, CCT5 / RFU, WDR92 / Fold change vs veh, WDR92 / RFU, CUX1 / Fold change vs veh, CUX1 / RFU, TTC7A / Fold change vs veh, TTC7A / RFU, TMEM135 / Fold change vs veh, TMEM135 / RFU, DEPTOR / Fold change vs veh, DEPTOR / RFU, CPM / Fold change vs veh, CPM / RFU, DNAJB6 / Fold change vs veh, DNAJB6 / RFU, CACNA2D3 / Fold change vs veh, CACNA2D3 / RFU, DTX4 / Fold change vs veh, DTX4 / RFU, TFCP2 / Fold change vs veh, TFCP2 / RFU, GMCL1 /// GMCL1P1 / Fold change vs veh, GMCL1 /// GMCL1P1 / RFU, AEBP2 / Fold change vs veh, AEBP2 / RFU, SNHG1 /// SNORD22 /// SNORD25 /// SNORD26 /// SNORD27 /// SNORD28 /// SNORD29 /// SNORD31 / Fold change vs veh, SNHG1 /// SNORD22 /// SNORD25 /// SNORD26 /// SNORD27 /// SNORD28 /// SNORD29 /// SNORD31 / Fold change (Aza/veh), C12orf56 (ProbeSet 11735607_a_at) / Fold change (ACY-1035/veh), C12orf56 (ProbeSet 11735607_a_at) / Fold change (Aza/veh), FGFR1OP (ProbeSet 11751329_s_at) / Fold change (ACY-1035/veh), FGFR1OP (ProbeSet 11751329_s_at) / Fold change (Aza/veh), VPS36 (ProbeSet 11739960_a_at) / Fold change (ACY-1035/veh), VPS36 (ProbeSet 11739960_a_at) / RFU SYPL1 (11715823_x_at) / Fold change /veh SYPL1 (11715823_x_at) / RFU IGFBP7 (11715501_s_at) / Fold change /veh IGFBP7 (11715501_s_at) / RFU REEP3 (11722064_at) / Fold change /veh REEP3 (11722064_at) / RFU IGLL1 (11728026_x_at) / Fold change /veh IGLL1 (11728026_x_at): dose or concentration left out as unconfirmed
# Settings: ProbeSet 11741123_x_at; LIST D
smiles,measurement,value
Nc1ccc(-c2cccs2)cc1NC(=O)c1ccc2c(c1)cc(C1CC1)n2CCN1CCOCC1 [ACY-1035],"Fold change vs veh, ADK",0.96
